According to patent US20190192458A1, “THERAPEUTIC/PROPHYLACTIC AGENT FOR GRAFT-VERSUS-HOST DISEASE, FIBROCYTE INVASION INHIBITOR, AND INHIBITOR AGAINST TEAR REDUCTION AND REDUCTION IN GOBLET CELLS” (KEIO UNIVERSITY, priority 2016, published 2019):

Assays:
[1] = system: mouse splenic macrophages; test: Cultured splenic macrophages from PBA-treated and vehicle-treated mice (immunofluorescence, immunoblot, qPCR); type: cell-based
Experimental: Bone marrow transplantation was performed as described in the above section “Bone marrow transplantation,” and the resulting allogeneic bone marrow transplantation recipient mice were divided into two groups. One group was treated with intraperitoneal injection of PBA (10 mg/kg) (Aldrich) while the other was treated with intraperitoneal injection of a solvent vehicle⋅phosphate buffered saline (PBS) (pH 7.4). The allogeneic bone marrow transplantation recipients received once-daily administration of PBA or the solvent vehicle from Day 10 to Day 27 after bone marrow transplantation. They were sacrificed on Day 28 after bone marrow transplantation.
Mouse splenic macrophages were cultured according to the Alatery and Besta method (Alatery A, Basta S, An efficient culture method for generating large quantities of mature mouse splenic macrophages. J Immunol Methods, 2008; 338: 47-57). Splenic cells suspended in RPMI containing 5% FBS were plated on a culture dish, and allowed to stand at 37° C. overnight. Subsequently, floating cells were removed. The desired cells adhering on the dish were cultured for 7 days in RPMI containing recombinant mouse M-CSF (5 ng/mL) (Peprotech Inc.), 5% of FBS, and 5% of the antibiotic. Induced macrophages were then detached from the culture dish by using accutase (Thermo Fisher Scientific), and used for experiments.
The induced macrophages were then transferred to an 8-well chamber slide (Fibronectin Culture Slide; Corning), and fixed with 10% neutral buffered formalin. Subsequently, they were blocked with methanol containing 0.3% hydrogen peroxide for 30 minutes at room temperature, and incubated with primary antibodies CD68 (AbD Serotec) and CHOP (Santa Cruz) overnight at 4° C. Then, the sections were treated with goat anti-mouse IgG (H+L) secondary antibody conjugated with Alexa Fluor 568 (Molecular Probes) and 4′,6-diamidino-2-phenylindole (DAPI) (Life Technologies) at room temperature for 45 minutes, and then mounted with an anti-fading mounting medium (Dako). Fluorescence images were captured under an LSM confocal microscope (Carl Zeiss).
The total RNA was extracted from the exorbital lacrimal gland, the proximal portion of the small intestine, the dorsal skin, the liver, the cultured fibroblasts, and the cultured macrophages using a miRNeasy mini kit (Qiagen), and the corresponding complementary DNAs were synthesized using a Rever Tra Ace qPCR RT kit (Toyobo Co., Ltd.). Primers used for analyzing the mRNA expression of the following genes with the TaqMan real-time polymerase chain reaction (PCR) were purchased from Applied Biosystems: housekeeping gene […] (GAPDH), glucose-regulated protein 78 (GRP78), Interleukin-1β (IL-1β), IL-6, IL-10, macrophage chemoattractant protein-1 (MCP-1), and transcription growth factor-β (TGF). A Step One Plus system (Applied Biosystems) was used to perform quantitative real time PCR, and the resulting data was analyzed by the 2^−ΔΔCT method. GAPDH was used as an internal standard for measuring the expression of mRNA.
Tissues of interest were each placed into an Eppendorf tube, and a pre-cooled RIPA buffer solution was then added to the tube. Subsequently, the tissues were each homogenized with an electric homogenizer. Samples were each allowed to stand on ice for 1 hour, and then centrifuged at 15000 rpm for 5 minutes at 4° C. Then, the supernatants were each collected in a fresh tube on ice, and used as a cell lysate. The cell lysates each received the same amount of a 5×Laemmli buffer solution, and each was heated at 100° C. for 5 minutes to denature proteins.
An aliquot of each sample having the same amount of proteins was loaded into a well of an SDS-PAGE gel, and then […]. Proteins were transferred from the gel to a membrane at 15 V for 20 minutes. The membrane was blocked at room temperature for 1 hour with 5% skim milk or 5% BSA (bovine serum albumin) in 1×TBST (a mixture of Tris-buffered saline and Tween 20). […]

[2] = system: cGVHD model mice (B10.D2 to BALB/c bone marrow transplantation); test: Survival and change in weight of PBA-treated allogeneic bone marrow transplantation recipient mice; type: in vivo, mouse; settings: PBA 10 mg/kg i.p. once daily Day 10 to Day 27 after allogeneic bone marrow transplantation
Experimental: Bone marrow transplantation was performed on model mice of cGVHD (Zhang Y, McCormick L L, Desai S R, Wu C, Gilliam A C, Murine Sclerodermatous Graft-Versus-Host Disease, a Model for Human Scleroderma: Cutaneous Cytokines, Chemokines, and Immune Cell Activation. The Journal of Immunology, 2002; 168: 3088-3098). When a donor was a B10.D2 mouse and a recipient was a BALB/c mouse, bone marrow transplantation was allogeneic, producing a model mouse of cGVHD. […] Recipients were irradiated at 700 cGy before bone marrow transplantation to perform lethal irradiation with a Gammacel 137 Cs source (Hitachi Medical Corp.). The recipient mice were each administered via tail vein with a suspension containing 1×10^6 donor bone marrow cells and 2×10^6 donor spleen cells.
Bone marrow transplantation was performed as described in the above section “Bone marrow transplantation,” and the resulting allogeneic bone marrow transplantation recipient mice were divided into two groups. One group was treated with intraperitoneal injection of PBA (10 mg/kg) (Aldrich) while the other was treated with intraperitoneal injection of a solvent vehicle⋅phosphate buffered saline (PBS) (pH 7.4). […]
Statistical significance was determined by the Mann-Whitney U test (which tests difference between two groups that have no correspondence). […]

[3] = splenic macrophages from PBA-treated vs vehicle-treated mouse, immunoblot, n=4
[4] = splenic macrophages, qPCR, n=4 to 5, PBA-treated vs vehicle-treated, FIG. 7E

O=C(O)CCCc1ccccc1 [PBA, 4-phenyl-n-butyric acid]
CHOP expression in cultured splenic macrophages (immunofluorescence) ([1]; splenic macrophages from PBA-treated vs vehicle-treated mouse, FIG. 7B): vehicle-treated splenic macrophages express CHOP in contrast with PBA-treated splenic macrophages | CHOP in splenic macrophages (immunoblot) [1, 3]: substantially inhibited | GRP78 in splenic macrophages [1, 3]: substantially inhibited | phosphorylated IRE1α in splenic macrophages [1, 3]: substantially inhibited | phosphorylated PERK in splenic macrophages [1, 3]: substantially inhibited | phosphorylated eIF2α in splenic macrophages [1, 3]: substantially inhibited | gene expression of M1 macrophage marker IL-1β [1, 4]: higher gene expressions | gene expression of M1 macrophage marker IL-6 [1, 4]: higher gene expressions | mRNA expression of M2 macrophage marker IL-10 [1, 4]: increased in the vehicle-treated macrophages as compared with the PBA-treated macrophages | mRNA expression of M2 macrophage marker TGF-β [1, 4]: increased in the vehicle-treated macrophages as compared with the PBA-treated macrophages | % survival ([2]; vs vehicle (PBS), FIG. 2A, n=14, P<0.05): higher survival percentage | change in weight ([2]; vs vehicle, FIG. 2B, n=10, P<0.001): the vehicle-treated mouse group showed larger weight loss as compared with the PBA-treated mouse group
